From patent US5063224A, “R-cefuroxime axetil” (priority 1990, dated 1991)
≈ marks a conversion by molar mass, not a printed value.

What was measured:
physchem = type: physicochemical; conditions: organic solvent or mixture
Procedure: The substantially pure R-cefuroxime axetil of this invention is prepared by selectively solubilizing the R-isomer in a solvent in which the S-isomer is only minimally soluble relative to the R-isomer. Solvents commonly employed are those in which the R-isomer is about six times more soluble in a given volume than the S-isomer. […] Generally, a mixture of R and S-cefuroxime axetil, prepared as described in GB 2,145,409A, and containing the R and S-isomers, is added to a solvent to form a slurry. The best results are obtained employing a solvent that provides sufficient solubility to maintain the desired volume at a minimum. Preferred solvents include alcohols such as methanol and ethanol. […] In isopropanol at 25° C., the R-isomer is 1.84 mg/ml, and the S-isomer is 0.44 mg/ml. In n-butanol at 25° C., the R-isomer is 1.0 mg/ml and the S-isomer is 0.3 mg/ml. In ethyl acetate at 25° C., the R-isomer is 13.42 mg/ml, and the S-isomer is 10.0 mg/ml.

[1] = test system: esterase enzymes in blood serum; test: Hydrolysis by esterase enzymes in dog blood serum (Example 5); type: in vitro ADME
Procedure: The following study was conducted to establish that S-cefuroxime axetil is hydrolyzed to cefuroxime acid much more rapidly by esterase enzymes in blood serum than the R-cefuroxime axetil of this invention.
Blood serum was obtained from an 11.5 kg male dog two days prior to sacrifice. The whole blood was centrifuged for fifteen minutes at 3500 rpm and 4° C. The serum thus collected was diluted with ten parts Sorenson's phosphate buffer pH 7.4.
A solution was prepared by dissolving 0.29 mg of R-cefuroxime axetil in 50 ml of Sorenson's phosphate buffer pH 7.4. Another solution was prepared by dissolving 0.26 mg of S-cefuroxime acetil in 50 ml of Sorenson's phosphate buffer pH 7.4.
Triplicate test tubes containing 2.75 ml of the R-cefuroxime axetil solution, and triplicate tubes containing 2.75 ml of the S-cefuroxime axetil solution, were each heated to 37° C. and diluted with 0.25 ml of the serum preparation from above. Aliquot portions (200 μl each) from each tube were drawn at thirty minute intervals, diluted with 100 μl of 10% aqueous trichloracetic acid, and 100 μl of acetonitrile. The samples were centrifuged at 3000 rpm for five minutes to precipitate the proteins, and then transferred to autosampler tubes for determination of cefuroxime free acid content. Analysis was conducted using a Beckman 344 gradient high performance liquid chromatography column packed with zorbox C18 reverse phase, with an eluant comprised of 40 parts methanol and 60 parts water. Standard integration of HPLC curves were carried out to convert the area to a mg/ml equivalent.

[2] = Microbiological assay of biological potency (Example 2 product); conditions: product with 85% by weight R- and 15% S-cefuroxime axetil
[3] = oral administration; cited from earlier work
[4] = Hydrolysis in dog gut cell (intestine) preparation (Example 6); type: in vitro ADME
Procedure: About 18 inches of intestine was removed from a 13 month old male dog weighing 11.5 kg. The intestine section was washed several times with Sorenson's solution, and then sliced open lengthwise. The intestine cells were collected by scraping the inner surface of the intestine with a glass microscope slide, and provided 6.10 g of cell tissue. The cell tissue was placed in 30.5 ml of Sorenson's pH 7.5 phosphate buffer. The mixture was homogenized for 30 seconds with a Tek-Mar tissuemizer. The resulting suspension was centrifuged at 4° C. at 3500 rpm for 15 minutes.
Following the general procedure of Example 2, 0.277 mg of R-cefuroxime axetil was dissolved in 50 ml of Sorenson's pH 7.4 buffer, and 0.263 mg of S-cefuroxime axetil was dissolved in 50 ml of Sorenson's pH 7.4 buffer.
Triplicate tubes of 2.75 ml of the R-cefuroxime axetil solution, and triplicate tubes of the S-cefuroxime axetil solution, were allowed to equilibrate to 37° C., and then 0.25 ml of the intestine mixture from above was added to each tube. Aliquot samples were withdrawn every 30 minutes for two hours, and each 200 μl of 10% aqueous trichloroacetic acid and 100 μl of acetonitrile. […] The assays were analyzed for unchanged R- or S-cefuroxime axetil and afforded the following results.

Row | solubility (physchem; ethanol) [µg/mL] | solubility (physchem; ethyl acetate) [µg/mL] | solubility (physchem; isopropanol) [µg/mL] | solubility (physchem; methanol) [µg/mL] | solubility (physchem; n-butanol) [µg/mL] | half-life (in words) [1] | hydrolysis rate relative to R-cefuroxime axetil in blood serum [1] | hydrolysis in blood serum (in words) ([1]; vs R-cefuroxime axetil) | hydrolysis rate relative to R-cefuroxime axetil in intestinal preparations [4] | hydrolysis in the dog gut (in words) ([4]; vs R-cefuroxime axetil) | SMILES | biological potency [2] [%] | bioavailability of the cefuroxime antibiotic [3]
1 | 12000 (≈ 23.5 mM) | 13400 (≈ 26.3 mM) | 1840 (≈ 3.6 mM) | 391000 (≈ 767 mM) | 1000 (≈ 1.96 mM) | longer half-life | – | – | – | – | CO/N=C(\C(=O)N[C@@H]1C(=O)N2C(C(=O)O[C@H](C)OC(C)=O)=C(COC(N)=O)CS[C@H]12)c1ccco1 [R-cefuroxime axetil] | 99 | –
2 | – | – | – | – | – | – | – | – | – | – | CO/N=C(\C(=O)N[C@@H]1C(=O)N2C(C(=O)OC(C)OC(C)=O)=C(COC(N)=O)CS[C@H]12)c1ccco1 (mixture of isomers) [R,S-mixture of cefuroxime axetil, 1-acetoxyethyl ester of cefuroxime] | – | about fifty
3 | ~2980 (≈ 5.84 mM) | 10000 (≈ 19.6 mM) | 440 (≈ 0.862 mM) | 90000 (≈ 176 mM) | 300 (≈ 0.588 mM) | – | about 25 fold | hydrolyzed much more rapidly | about 3 fold | hydrolyzed much more rapidly | CO/N=C(\C(=O)N[C@@H]1C(=O)N2C(C(=O)O[C@@H](C)OC(C)=O)=C(COC(N)=O)CS[C@H]12)c1ccco1 [S-cefuroxime axetil, reference compound] | – | –
